Tested on: cardiomyocytes derived from neonatal mouse ventricles
Assay: Reprogramming of cardiomyocytes into iPS cells (selective culture in mouse ES medium)
Assay type: cell-based
Conditions: ES medium containing both 10 μM SB-431542 and 100 nM siRNA Cx43 (combination); after about two weeks; cardiomyocytes seeded at 2×10^5 cells
Experimental: Two-day-old neonatal C57BL/6 or C57BL/6-Tg (CAG-EGFP) mouse hearts including ventricles were minced into approximately 2-mm cubes with dissecting scissors by a conventional method. They were treated with 0.2% collagenase (type II; Worthington Biochemical Corp. U.S.; dissolved in PBS) to dissociate cardiomyocytes. The dissociated cardiomyocytes were centrifuged, and incubated for 45 minutes in DMEM containing 10% FBS at 37° C. with 5% CO2. After the incubation, the supernatant was further incubated under the same conditions. This process was repeated four times. Thus, fibroblasts were removed, and the cardiomyocytes were isolated,
The cardiomyocytes were seeded at 2×10^5 cells in a 6-cm dish, and cultured in the above DMEM medium. After culturing for 1 week, the medium used for culturing the cardiomyocytes was switched from the above DMEM medium to mouse ES media containing 15% FBS and also containing either a TGF-β receptor inhibitor SB-431542 (10 μM; Tocris, USA), siRNA Cx43 (100 nM), or both compounds, to select the reprogrammed cells. […]

Compound	iPS cell colonies obtained
NC(=O)c1ccc(-c2nc(-c3ccc4c(c3)OCO4)c(-c3ccccn3)[nH]2)cc1 [SB-431542]	Two
siRNA Cx43: mouse Cx43 siRNA; sense 5′-CAAUUCCUCCUGCCGCAATT-3′, antisense 5′-UUGCGGCAGGAGGAAUUGTT-3′ (sense CAAUUCCUCCUGCCGCAATT; antisense UUGCGGCAGGAGGAAUUGTT; chemistry not given here)	Two

From US8956868B2, “Induced pluripotent stem cells produced with a connexin inhibitor and a TGF-β signaling inhibitor” (LSIP, LLC, priority 2010, dated 2015)
